{
  "source": "patent US8846331B2",
  "about": "“Asynchronous magnetic bead rotation sensing systems and methods” (The Regents of the University of Michigan, priority 2010, dated 2014)",
  "assay_type_in_all_cases": "cell-based, Escherichia coli",
  "key": {"E. coli [1]": {"system": "E. coli", "test": "AMBR 16-well prototype, growth of E. coli on clusters of magnetic particles (FIG. 3d)", "details": "0, 2, 4 and 8 μg/mL antibiotic", "source_text": "FIGS. 3a-f illustrates results from one variation of a multiwell prototype device using a 16-well disposable card. […] FIG. 3b illustrates exemplary results showing raw periodic laser intensity data corresponding to the rotation of the sample for one well; FIG. 3c is an image of a 16 sensor array AMBR system prototype that incorporates low-power lasers and phototransistors to measure rotational data (with black tray that supports the disposable card). FIG. 3d illustrates a graph of antibiotic susceptibility results for averaged and normalized data with E. coli bacteria.\nFor example, when cell division occurs, a significant portion of the bacteria remain on the surface of the particles. Thus, a more reliable growth response may be detected (as cells are not all shed into the medium). […] Clusters may be readily detected and their rotation more easily optically resolved. […] This allows for response to antibiotics to be measured in a reproducible manner, which makes the technique more clinically relevant. FIGS. 3a-3f illustrate a prototype device that has been used as a proof-of-principle for the rotation of clusters and use of multiwell sample plates. The example shown in FIG. 3a is a 16-well disposable plate. Each well in the plate (which may also be referred to as a “card”) has been treated to contain a single cluster of magnetic particles that rotate as a group. […]"}, "uropathogenic E. coli [2]": {"system": "uropathogenic E. coli", "test": "AMBR with self-assembled magnetic particle clusters in hanging droplet, MIC measurement", "details": "from FIGS. 47a and 47b, rotational period of clusters", "source_text": "FIGS. 46a-c illustrates one example AMBR using a cluster formed in a well having a curved interface (in this example, a hanging droplet). […] This lensing effect may be used to amplify the rotational signal by magnifying the image through the droplet. […] An LED or laser light may be focused by the droplet curvature, magnifying the ‘image’ of the particle cluster a 100-fold. After the magnification, the rotational period can be observed and measured using a photodetector, thus observing a periodic signal corresponding to the rotational period of the cluster. FIG. 46b illustrates the change in cluster shape/size and rotation. The rotational period of the cluster changes accordingly: as the cluster itself expands (e.g., changing shape to have a larger diameter); as bacteria or other analytes attach to the cluster and/or expand/swell; or as the viscosity of the surrounding fluid changes. Viscosity may change if unbound cells divide and increase in number within the well. The rotational period of the cluster can be measured using the Fast Fourier Transform (FFT). The lower graphs in FIG. 46b show a shift in the peak observing the peak location. […]\nThe self-assembled magnetic particles shown in FIG. 47a-g enabled rapid MIC measurements, and the determined values agreed with values obtained with the traditional microdilution method. […]"}, "[3]": {"system": "uropathogenic E. coli isolate", "test": "MIC determination with the Vitek 2 system"}, "uropathogenic E. coli [4]": {"system": "uropathogenic E. coli", "test": "AMBR droplet microfluidic platform, small cell-population growth response (AST)", "details": "for change in rotational period (bacterial growth): monitored minimum one hour", "source_text": "Asynchronous magnetic bead rotation (AMBR) may be performed on hanging droplets and on oil/water emulsions (e.g., droplets of water including the magnetic beads and analyte suspended in oil). For example an AMBR biosensor may use a droplet microfluidic platform that enables single cell and small cell population growth measurements for applications aimed at rapid antimicrobial susceptibility testing (“AST”). […] Growth was observed below the MIC, and no growth was observed above the MIC. A 52% change in the sensor signal (i.e. rotational period) was observed within 15 minutes, thus allowing AST measurements to be performed within minutes.\nThe microfluidic platform typically forms reproducibly or uniform-sized droplets of aqueous solution (e.g., media) including magnetic particles. […] In this example, the continuous phase consisted of mineral oil with 1% SPAN 80 (v/v). For bead (magnetic particle) characterization experiments, the aqueous phase consisted of PBS solution: PBS with 1% Pluronic F-68 and 0.1% BSA. For biological experiments, the aqueous phase consisted of MH broth solution: MH with 1% Pluronic F-68 and 0.1% BSA, which will be referred to as MH-PB.\nIn one example, using the microfluidic device described above and in FIGS. 23a and 23b, experiments were conducted on an Olympus IX71 inverted microscope. The microfluidic device was placed inside custom-built electromagnet coils that were integrated on the microscope stage (see, e.g., FIG. 23c). In this example, the rotating magnetic field was generated with a custom LabView program and data acquisition board (NI PCI-6221). The magnetic field driving frequency range was 0.1 Hz to 1 kHz, and the magnetic field strength was 0.9 mT, as measured with a 3-axis magnetic field probe (Senis Gmbh, C-H3A-2m).\nMagnetic bead characterization experiments were conducted at 21° C. Single cell experiments were conducted at 21° C., with a 100× oil immersion objective. The magnetic field driving frequency was set at 500 Hz for control and growth experiments. One-minute videos at 15 frames per second (fps) were taken in 5-minute intervals with a digital camera. Small cell-population experiments were conducted at 35° C., with a 40× objective. The microfluidic device was placed on an ITO slide that was heated and maintained at a set temperature, 35+0.2° C. This temperature was monitored by a thermocouple that was coupled to the surface of the slide with a thermally conducting silver paste, Arctic Silver 5 (ARCTIC SILVER). The magnetic field driving frequency for small cell-population control and growth experiments was set at 50 Hz, and continuous videos were taken for a minimum of 5 hours at 2 fps. For small cell-population control and antibiotic response experiments, 1-minute videos were taken at 20 fps in either 5-minute or 20-minute intervals.\nAs mentioned, movies were captured with a digital camera (Basler, piA640-210 gm). The videos were analyzed using ImageJ (for example, see FIG. 23d). The rotational frequency of the bead complex was determined by monitoring the fluctuations in intensity profile at the target area of interest using ImageJ s ‘plot z-axis profile’ functionality. This intensity plot was analyzed by applying a Fast Fourier Transform (FFT) to the raw ImageJ data in MATLAB. The experimental error in determining the rotational period was designated as the FFT peak's full width at half max (FWHM) of the amplitude signal. […]"}, "E. coli [5]": {"system": "E. coli", "test": "AMBR multiwell card reader, rotational period growth curves (FIG. 9)", "details": "FIG. 9, driving frequency 100 Hz", "experimental": "FIG. 9 illustrates the rotational period (in seconds) of rotating magnetic beads with attached E. coli versus time (in minutes) for various concentrations of antibiotic (Gentamicin).\nA clinical sample (e.g. blood, urine, etc) may be mixed with a Muller-Hinton (MH) or phosphate buffered saline solution that contains magnetic beads that are coated with antibodies specific to the pathogen of interest. The bacteria and beads are incubated together to allow for ample time to bind and if necessary, population growth of the bacteria. […] This solution (now containing only […]) is then placed into the disposable (preferably multiwell) plate, where the beads are asynchronously rotated in the card reader for detection/identification and antibiotic susceptibility testing, where the minimum inhibitory concentration will be determined. […] Finally, the magnetic particles are rotated in the asynchronous regime and monitored optically to determine cell growth (elongation and/or division). […]\nThe asynchronous rotational period of the rotating cluster of magnetic particles may be measured using the light modulation that is produced when each laser beam (or other light) passes through the small magnetic bead cluster. […] From this, the rotation rate can be measured by simply tracking the peak-to-peak distance (period) of the modulated intensity. […]"}},
  "data": [
    {"compound": "CC1(C)S[C@@H]2[C@H](NC(=O)[C@H](N)c3ccccc3)C(=O)N2[C@H]1C(=O)O", "note": "[ampicillin]", "values": [
      {"measurement": "effect on growth of E. coli on clusters (rotational period)", "setting": "E. coli [1]", "result": "acts as a growth accelerating agent"}
    ]},
    {"compound": "[H]/N=C(/N)N[C@H]1[C@H](O)[C@@H](O)[C@H](O[C@@H]2O[C@@H](C)[C@](O)(C=O)[C@H]2O[C@@H]2O[C@@H](CO)[C@H](O)[C@@H](O)[C@@H]2NC)[C@@H](N/C(N)=N\\[H])[C@@H]1O", "note": "[streptomycin]", "values": [
      {"measurement": "MIC", "setting": "uropathogenic E. coli [2]; Escherichia coli, read-out: MIC measured with AMBR clusters", "result": 8, "unit": "µg/mL"},
      {"measurement": "MIC", "setting": "[3]; Escherichia coli, isolate of the magnetic particle cluster experiments (FIGS. 47a-b), read-out: clinical (reference) MIC as determined with Vitek 2", "result": 16, "unit": "µg/mL"}
    ]},
    {"compound": "gentamicin", "values": [
      {"measurement": "change in rotational period (bacterial growth)", "setting": "uropathogenic E. coli [4]; 0.5 μg/mL gentamicin", "result": "increase in rotational period"},
      {"measurement": "change in rotational period (bacterial growth)", "setting": "uropathogenic E. coli [4]; 2 μg/mL gentamicin", "result": "No substantial change in the rotational period"},
      {"measurement": "change in rotational period (bacterial growth)", "setting": "uropathogenic E. coli [4]; 4 μg/mL gentamicin", "result": "No substantial change in the rotational period"},
      {"measurement": "difference in rotational period between bacteria treated above and below the MIC", "setting": "uropathogenic E. coli [4]; after 15 minutes", "result": 52, "unit": "%"},
      {"measurement": "difference in rotational period between bacteria treated above and below the MIC", "setting": "uropathogenic E. coli [4]; within 25 minutes", "result": 100, "unit": "%"},
      {"measurement": "MIC measured with AMBR clusters", "setting": "uropathogenic E. coli [2]", "result": 2, "unit": "µg/mL"},
      {"measurement": "minimum inhibitory concentration (MIC) from AMBR growth curves", "setting": "E. coli [5]", "result": 2, "unit": "µg/mL"},
      {"measurement": "MIC as determined with the Vitek 2 system", "setting": "[3]; isolate of the droplet microfluidic experiments", "result": 1, "unit": "µg/mL"},
      {"measurement": "clinical (reference) MIC as determined with Vitek 2", "setting": "[3]; isolate of the magnetic particle cluster experiments (FIGS. 47a-b)", "result": 2, "unit": "µg/mL"}
    ]}
  ]
}
